# Laboratory results taken from PubChem BioAssay (NCI).
#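 All cell lines were grown in 96-well plates and treated with compound for 48 hours. GI50 marks 50% less growth. TGI is the concentration that stops growth completely.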
# System: MDA-MB-468 breast
# Experiment: inhibition of tumour cell growth, NCI panel, 48 h
structure (smiles),measurement,value
CCOCCOC[C@H]1CCCN(c2ccnc3sc(C(N)=O)c(N)c23)C1,GI50,3.44 µM
same,TGI,> 100 µM
